From patent US8106214B2, “2-imino-4-(thio) oxo-5-polycyclovinylazolines for use as PI3 kinase inhibitors” (Merck Serono SA, priority 2003, dated 2012)
pIC50: −log10 of the molar value. Where two headings read alike, the source gives them in different places.

How the values were obtained:
[1] = target: Human recombinant GST-PI3Kγ (Homo sapiens, UniProt P48736); assay: High Throughput PI3K Lipid Kinase Assay (SPA, neomycin-coated beads); type: biochemical
Method: a) High Throughput PI3K Lipid Kinase Assay (Binding Assay):
The assay combines the scintillation proximity assay technology (SPA, Amersham) with the capacity of neomycin (a polycationic antibiotic) to bind phospholipids with high affinity and specificity. The Scintillation Proximity Assay is based on the properties of weakly emitting isotopes (such as ^3H, ^125I, ^33P). Coating SPA beads with neomycin allows the detection of phosphorylated lipid substrates after incubation with recombinant PI3K and radioactive ATP in the same well, by capturing the radioactive phospholipids to the SPA beads through their specific binding to neomycin.
To a 384 wells MTP containing 5 μl of the test compound of Formula (D) (solubilized in 6% DMSO; to yield a concentration of 100, 30, 10, 3, 1, 0.3, 0.1, 0.03, 0.01, 0.001 μM of the test compound), the following assay components are added. 1) 5 μl (58 ng) of Human recombinant GST-PI3Kγ (in Hepes 40 mM, pH 7.4, DTT 1 mM and ethylenglycol 5%) 2) 10 μl of lipid micelles and 3) 10 μl of Kinase buffer ([^33P]γ-ATP 45 μM/60 nCi, MgCl2 30 mM, DTT 1 mM, β-Glycerophosphate 1 mM, Na3VO4 100 μM, Na Cholate 0.3%, in Hepes 40 mM, pH 7.4). After incubation at room temperature for 180 minutes, with gentle agitation, the reaction is stopped by addition of 60 μl of a solution containing 100 μg of neomycin-coated PVT SPA beads in PBS containing ATP 10 mM and EDTA 5 mM. The assay is further incubated at room temperature for 60 minutes with gentle agitation to allow binding of phospholipids to neomycin-SPA beads. After precipitation of the neomycin-coated PVT SPA beads for 5 minutes at 1500×g, radioactive PtdIns(3)P is quantified by scintillation counting in a Wallac MicroBeta™ plate counter.
The values indicated in respect of PI3Kγ refer to the IC50 (μM), i.e. the amount necessary to achieve 50% inhibition of said target. Said values show a considerable potency of the 2-imino-azolinone-vinyl fused-benzene compounds with regard to PI3Kγ.

[2] = tested on: C5a-mediated AKT phosphorylation in Raw 264-7 macrophages; assay: Cell based ELISA: Akt/PKB phosphorylation in macrophages after C5a stimulation; conditions: Mus musculus, RAW264.7, 5 min; compound at 10 μM; Raw 264-7 macrophages stimulated with 50 nM C5a for 5 minutes; read-out: percentage of inhibition of C5a-mediated AKT phosphorylation
Method: b) Cell Based ELISA to Monitor PI3K Inhibition:
Measurement of Akt/PKB phosphorylation in macrophages after stimulation with human recombinant Complement 5a (C5a) from Sigma (C5788): Raw 264: Raw 264-7 macrophages (cultured in DMEM-F12 medium containing 10% Fetal Calf serum and antibiotics) are plated at 20,000 cells/well in a 96 MTP 24 h before cell stimulation. Previous to the stimulation with 50 nM of Complement 5a during 5 minutes, Cells are serum starved for 2 h, and pre-treated with inhibitors for 20 minutes. After stimulation cells are fixed in 4% formaldehyde for 20 minutes and washed 3 times in PBS containing 1% Triton X-100 (PBS/Triton). Endogenous peroxidase is blocked by a 20 minutes incubation in 0.6% H2O2 and 0.1% Sodium Azide in PBS/Triton and washed 3 times in PBS/Triton. Cells are then blocked by 60 minutes incubation with 10% foetal calf serum in PBS/Triton. Next, phosphorylated AKWPKB is detected by an overnight incubation at 4° C. with first antibody (anti phospho Serine 473 Akt IHC, Cell Signalling) diluted 800-fold in PBS/Triton, containing 5% bovine serum albumin (BSA). […] The reaction is stopped by addition of 50 μl of 1 M SO4H2 and absorbance is read at 450 nm. […]

[3] = tested on: Class I PI3-kinases; conditions: cited from earlier work

Chain of Human recombinant GST-PI3Kγ (P48736 whole entry): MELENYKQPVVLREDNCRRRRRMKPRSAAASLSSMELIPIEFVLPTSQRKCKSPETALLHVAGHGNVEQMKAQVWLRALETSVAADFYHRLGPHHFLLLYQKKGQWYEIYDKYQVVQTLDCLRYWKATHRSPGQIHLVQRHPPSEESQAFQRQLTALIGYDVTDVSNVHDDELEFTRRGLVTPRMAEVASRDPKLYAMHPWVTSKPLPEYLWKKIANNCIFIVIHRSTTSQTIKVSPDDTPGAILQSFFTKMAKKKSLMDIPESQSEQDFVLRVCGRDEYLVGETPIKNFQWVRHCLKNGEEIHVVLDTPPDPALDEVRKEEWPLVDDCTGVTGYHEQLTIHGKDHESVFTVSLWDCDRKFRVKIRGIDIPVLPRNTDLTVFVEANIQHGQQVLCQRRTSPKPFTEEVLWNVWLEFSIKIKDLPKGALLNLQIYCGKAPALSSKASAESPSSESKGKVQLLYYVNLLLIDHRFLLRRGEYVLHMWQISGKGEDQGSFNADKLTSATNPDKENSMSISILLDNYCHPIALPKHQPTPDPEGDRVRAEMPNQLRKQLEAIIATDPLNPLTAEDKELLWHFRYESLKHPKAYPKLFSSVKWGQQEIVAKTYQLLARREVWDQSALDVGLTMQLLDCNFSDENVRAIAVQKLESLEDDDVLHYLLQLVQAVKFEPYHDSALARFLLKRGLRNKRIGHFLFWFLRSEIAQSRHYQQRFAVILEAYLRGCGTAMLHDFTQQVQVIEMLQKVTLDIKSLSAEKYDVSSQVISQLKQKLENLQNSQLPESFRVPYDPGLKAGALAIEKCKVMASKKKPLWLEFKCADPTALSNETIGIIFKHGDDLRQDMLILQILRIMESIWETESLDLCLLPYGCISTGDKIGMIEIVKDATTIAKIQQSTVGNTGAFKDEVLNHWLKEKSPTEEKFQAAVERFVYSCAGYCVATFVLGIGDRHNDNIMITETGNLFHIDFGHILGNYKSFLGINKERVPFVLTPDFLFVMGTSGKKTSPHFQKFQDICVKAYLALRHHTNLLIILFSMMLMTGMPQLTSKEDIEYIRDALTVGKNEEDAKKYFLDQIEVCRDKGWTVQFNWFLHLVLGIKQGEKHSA

N#CN=C1NC(=O)/C(=C/c2ccc3nccnc3c2)S1 [Example 21, 4-Oxo-5-quinoxalin-6-ylmethylene-thiazolidin-2-ylidene-cyanamide]
pIC50 [1]: > 6.00

CS(=O)(=O)/N=C1\NC(=O)/C(=C/c2ccc3c(c2)OCO3)S1 [Example 10, N-(5-Benzo[1,3]dioxol-5-ylmethylene-4-oxo-thiazolidin-2-ylidene)-methanesulfonamide]
inhibition at 10 µM [2]: 80%

O=c1cc(N2CCOCC2)oc2c(-c3ccccc3)cccc12 [LY294002]
pIC50 ([3]; Fruman et al. 1998, read-out: IC50 values against each of these PI3-kinases): 4.70 to 4.82

O=C1N/C(=N\S(=O)(=O)c2ccccc2)S/C1=C\c1ccc2c(c1)OCO2 [Example 8, N-(5-Benzo[1,3]dioxol-5-ylmethylene-4-oxo-thiazolidin-2-ylidene)-benzenesulfonamide]
inhibition at 10 µM [2]: 100%

COC(=O)c1sccc1S(=O)(=O)N=C1NC(=O)/C(=C/c2ccc3ncccc3c2)S1 [Example 16, 3-(4-Oxo-5-quinolin-6-ylmethylene-thiazolidin-2-ylidenesulfamoyl)-thiophene-2-carboxylic acid methyl ester]
pIC50 [1]: > 6.00

CO/N=C1\NC(=O)/C(=C/c2ccc3c(c2)OCO3)S1 [Example 20, 5-Benzo[1,3]dioxol-5-ylmethylene-thiazolidine-2,4-dione 2-(O-methyl-oxime)]
pIC50 [1]: > 6.00

wortmannin
pIC50 ([3]; read-out: IC50 values against each of the various Class I PI3-kinases): 8.00 to 9.00

CN=C1NC(=O)/C(=C/c2ccc3ncnc(N(C)C)c3c2)S1 [Example 26, 5-(4-Dimethylamino-quinazolin-6-ylmethylene)-2-methylimino-thiazolidin-4-one]
pIC50 [1]: > 6.00

O=C1NC(=NCc2ccccc2)S/C1=C\c1ccc2c(c1)OCO2 [Example 22, 5-Benzo[1,3]dioxol-5-ylmethylene-2-benzylimino-thiazolidin-4-one]
pIC50 [1]: > 5.82
